# Where a name gives a salt, the structure may show the parent alone.
# Key:
# [1] = molecular target: T1, hMAO B (Homo sapiens, UniProt P27338); assay: hMAO B inhibition, fluorometric Amplex Red MAO assay; type: biochemical; conditions: percent of inhibition at 1 μM; mean of two independent experiments; read-out: MAO B (%Inh.)
# T1 construct: purchased Sigma Aldrich M7441
# T1 sequence (P27338 1-520): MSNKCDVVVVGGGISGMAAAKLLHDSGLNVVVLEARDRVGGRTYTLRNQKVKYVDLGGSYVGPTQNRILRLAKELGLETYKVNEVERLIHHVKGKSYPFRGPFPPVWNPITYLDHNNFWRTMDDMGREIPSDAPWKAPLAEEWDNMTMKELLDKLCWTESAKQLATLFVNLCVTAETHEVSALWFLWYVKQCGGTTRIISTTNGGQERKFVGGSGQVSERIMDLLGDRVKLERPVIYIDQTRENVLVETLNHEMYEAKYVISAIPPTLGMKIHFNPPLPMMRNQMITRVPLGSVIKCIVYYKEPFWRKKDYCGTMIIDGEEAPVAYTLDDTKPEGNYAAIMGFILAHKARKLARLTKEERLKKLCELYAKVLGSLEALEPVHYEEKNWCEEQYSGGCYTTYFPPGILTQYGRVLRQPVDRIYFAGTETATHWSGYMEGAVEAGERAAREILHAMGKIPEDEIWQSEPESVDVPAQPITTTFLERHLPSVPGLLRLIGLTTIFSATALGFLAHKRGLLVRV
# [2] = molecular target: T2, human histamine H3 receptor (hH3R) (Homo sapiens, UniProt Q9Y5N1); assay: radioligand displacement binding assay, [3H]Nα-methylhistamine, HEK293 cells stably expressing hH3R; conditions: HEK293 cells stably expressing human H3R, mean (95% CI)
# T2 construct: expressed in transfected cells
# Method: [^3H]N^α-methylhistamine was used as a radioligand.
# The radioligand displacement binding assay was carried out in HEK-293 cells stably expressing the recombinant hH3R as described by Kottke et al. with slight modifications. […] Obtained data from at least three experiments (in at least duplicates) were analyzed with GraphPad Prism 6.1 (San Diego, CA, USA) using nonlinear regression (one-site competition on logarithmic scale), and Ki values were transformed from IC50 according to Cheng-Prusoff. Statistical analysis was performed on −log Ki values.
# [3] = system: haloperidol-induced catalepsy; assay: haloperidol-induced catalepsy, crossed-leg position test; type: in vivo, Wistar rats; conditions: mean ± SEM (n = 6)
# Method: (§1) Haloperidol (dopamine D2 antagonist)-induced catalepsy in rodents is a popular model for screening of antiparkinsonian activity of compounds [21]. Caused symptoms in animals are similar to the inability of PD patients to initiate movements. […] The reversal of catalepsy was tested for 6 min (3 times in 3 min intervals) after 1 h of haloperidol administration. As the reference compound was used MSX-3, the adenosine A2A receptor antagonist with confirmed ability to reverse catalepsy mediated by D1 and D2 receptor antagonists.
# (§2) The experiments were carried out on male rats Wistar (180–220 g). Animals were housed in plastic cages in room at a constant temperature of 20 ± 2 °C with natural light–dark cycles. The animals had free access to standard pellet diet and water and were used after a minimum of 3 days of acclimatization to the housing conditions. Control and experimental groups consisted of 6 animals each. All experimental procedures were performed according to the European Union Directive of 22 September 2010 (2010/63/EU) and Polish legislation concerning animal care and use and was approved by the Local Ethics Committee for Experiments on Animals in Kraków, Poland (Resolution No. 70/2014, approval date: 20 May 2014). The examined compound was administered as the suspension in 0.5% methylcellulose in constant volume of 10 mL/kg.
# (§3) Antiparkinsonian activity in catalepsy tests was performed as described in [28]. Haloperidol was administered s.c. at a dose of 0.63 mg/kg, which in 100% of control animals caused catalepsy. Tested compounds were administered i.p. at the doses 50 and 25 mg/kg body weight, 5 min after haloperidol injection. After 60 min from the injection of haloperidol, to assess the occurrence of catalepsy, the animals were placed in a forced position and the time they remained in this position was measured. Two tests were performed to determine the antiparkinsonian activity: crossed leg position test and bar test. In the first test, the animals were put on the hind paws behind the front (forced position); in the second, the animals were supported on a wooden block (the front paws were placed on a block suspended 10 cm above the ground). Then, the time that the animals remain is measured in a forced position (time was measured to a maximum of 60 s). Observation was carried out 3 times in 3-min intervals. The shortening of the time of catalepsy to the control group was adopted for the antiparkinsonian activity.
# [4] = system: haloperidol-induced catalepsy; assay: haloperidol-induced catalepsy, bar test; type: in vivo, Wistar rats; conditions: mean ± SEM (n = 6)
# Method: as §1
# Haloperidol-induced catalepsy was not reduced by DL-76 administrated at a dose of 25 mg/kg body weight (Table 3). After administration of DL-76 at a dose of 50 mg/kg body weight, low antiparkinsonian activity in the bar test was observed. […] This effect was weaker than the anti-Parkisonian activity of MSX-3.
# as §2, §3
# T2 sequence (Q9Y5N1 whole entry): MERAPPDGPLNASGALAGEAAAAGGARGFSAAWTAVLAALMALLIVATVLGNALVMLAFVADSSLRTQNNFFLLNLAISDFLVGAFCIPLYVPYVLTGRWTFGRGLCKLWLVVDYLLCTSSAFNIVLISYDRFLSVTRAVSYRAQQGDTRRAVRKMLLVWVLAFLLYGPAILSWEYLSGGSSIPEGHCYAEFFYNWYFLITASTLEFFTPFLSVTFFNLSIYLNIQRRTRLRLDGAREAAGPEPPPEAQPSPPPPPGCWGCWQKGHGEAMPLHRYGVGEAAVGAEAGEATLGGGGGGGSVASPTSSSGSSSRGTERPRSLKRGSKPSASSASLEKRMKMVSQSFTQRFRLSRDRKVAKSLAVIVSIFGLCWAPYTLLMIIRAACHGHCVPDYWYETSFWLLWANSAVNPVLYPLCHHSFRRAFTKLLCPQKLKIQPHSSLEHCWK
smiles,measurement,setting,value
"CC(C)(C)c1ccc(OCCCCCN2CCCCC2)cc1.O=C(O)C(=O)O [Compound 7, 1-(5-(4-tert-Butylphenoxy)pentyl)piperidine hydrogen oxalate]",inhibition at 1 µM,[1],28%
same,melting point,,170 to 172 °C
same,Ki,[2],252 nM
"CC(C)(C)c1ccc(OCCCCCCN2CCCCC2)cc1.O=C(O)C(=O)O [Compound 8, 1-(6-(4-tert-Butylphenoxy)hexyl)piperidine hydrogen oxalate]",inhibition at 1 µM,[1],13%
same,melting point,,156 to 158 °C
same,Ki,[2],225 nM
"CC1CCCCN1CCCCCOc1ccc(C(C)(C)C)cc1.O=C(O)C(=O)O (stereo not drawn) [Compound 11, 1-(5-(4-tert-Butylphenoxy)pentyl)-2-methylpiperidine hydrogen oxalate]",inhibition at 1 µM,[1],36%
same,melting point,,96 to 99 °C
same,Ki,[2],1560 nM
"CC1CCCN(CCCCOc2ccc(C(C)(C)C)cc2)C1.O=C(O)C(=O)O (stereo not drawn) [Compound 13, 1-(4-(4-tert-Butylphenoxy)butyl)-3-methylpiperidine hydrogen oxalate]",melting point,,148 to 150 °C
same,Ki,[2],102 nM
"CC1CCCN(CCCCCOc2ccc(C(C)(C)C)cc2)C1.O=C(O)C(=O)O (stereo not drawn) [Compound 14, 1-(5-(4-tert-Butylphenoxy)pentyl)-3-methylpiperidine hydrogen oxalate]",inhibition at 1 µM,[1],33%
same,melting point,,179 to 181 °C
same,Ki,[2],114 nM
"CC1CCCN(CCCCCCOc2ccc(C(C)(C)C)cc2)C1.O=C(O)C(=O)O (stereo not drawn) [Compound 15, 1-(6-(4-tert-Butylphenoxy)hexyl)-3-methylpiperidine hydrogen oxalate]",inhibition at 1 µM,[1],13%
same,melting point,,140 to 142 °C
same,Ki,[2],351 nM
"CC1(C)CCCN(CCCCOc2ccc(C(C)(C)C)cc2)C1.O=C(O)C(=O)O [Compound 17, 1-(4-(4-tert-Butylphenoxy)butyl)-3,3-dimethylpiperidine hydrogen oxalate]",inhibition at 1 µM,[1],38%
same,melting point,,140 to 142 °C
same,Ki,[2],3440 nM
"CC1CC(C)CN(CCCOc2ccc(C(C)(C)C)cc2)C1.O=C(O)C(=O)O (stereo not drawn) [Compound 20, 1-(3-(4-tert-Butylphenoxy)propyl)-3,5-dimethylpiperidine hydrogen oxalate]",inhibition at 1 µM,[1],37%
same,melting point,,143 to 145 °C
same,Ki,[2],341 nM
"CC1CC(C)CN(CCCCOc2ccc(C(C)(C)C)cc2)C1.O=C(O)C(=O)O (stereo not drawn) [Compound 21, 1-(4-(4-tert-Butylphenoxy)butyl)-3,5-dimethylpiperidine hydrogen oxalate]",inhibition at 1 µM,[1],35%
same,melting point,,170 to 172 °C
same,Ki,[2],1380 nM
"CC1CC(C)CN(CCCCCOc2ccc(C(C)(C)C)cc2)C1.O=C(O)C(=O)O (stereo not drawn) [Compound 22, 1-(5-(4-tert-Butylphenoxy)pentyl)-3,5-dimethylpiperidine hydrogen oxalate]",inhibition at 1 µM,[1],41%
same,melting point,,175 to 178 °C
same,Ki,[2],2240 nM
"CC1CC(C)CN(CCCCCCOc2ccc(C(C)(C)C)cc2)C1.O=C(O)C(=O)O (stereo not drawn) [Compound 23, 1-(6-(4-tert-Butylphenoxy)hexyl)-3,5-dimethylpiperidine hydrogen oxalate]",inhibition at 1 µM,[1],34%
same,melting point,,143 to 145 °C
same,Ki,[2],2080 nM
"CC1CCN(CCCOc2ccc(C(C)(C)C)cc2)CC1.O=C(O)C(=O)O [Compound 24, 1-(3-(4-tert-Butylphenoxy)propyl)-4-methylpiperidine hydrogen oxalate]",inhibition at 1 µM,[1],37%
same,melting point,,158 to 160 °C
same,Ki,[2],316 nM
"CC1CCN(CCCCOc2ccc(C(C)(C)C)cc2)CC1 [Compound 25, 1-(4-(4-tert-Butylphenoxy)butyl)-4-methylpiperidine hydrogen oxalate]",inhibition at 1 µM,[1],33%
same,Ki,[2],400 nM
"CC1CCN(CCCCCOc2ccc(C(C)(C)C)cc2)CC1.O=C(O)C(=O)O [Compound 26, 1-(5-(4-tert-Butylphenoxy)pentyl)-4-methylpiperidine hydrogen oxalate]",inhibition at 1 µM,[1],39%
same,melting point,,167 to 170 °C
same,Ki,[2],531 nM
"CC1CCN(CCCCCCOc2ccc(C(C)(C)C)cc2)CC1.O=C(O)C(=O)O [Compound 27, 1-(6-(4-tert-Butylphenoxy)hexyl)-4-methylpiperidine hydrogen oxalate]",inhibition at 1 µM,[1],10%
same,melting point,,136 to 139 °C
same,Ki,[2],1350 nM
"CC(C)(C)c1ccc(OCCCCCN2CCCCCC2)cc1.O=C(O)C(=O)O [Compound 30, 1-(5-(4-tert-Butylphenoxy)pentyl)-azepane hydrogen oxalate]",inhibition at 1 µM,[1],18%
same,melting point,,151 to 153 °C
same,Ki,[2],324 nM
"CC(C)(C)c1ccc(OCCCCCCN2CCCCCC2)cc1.O=C(O)C(=O)O [Compound 31, 1-(6-(4-tert-Butylphenoxy)hexyl)-azepane hydrogen oxalate]",inhibition at 1 µM,[1],23%
same,melting point,,130 to 132 °C
"C#CCn1c(=O)c2c(nc(/C=C/c3cccc(OC)c3)n2C)n(CCCOP(=O)(O)O)c1=O.[Na].[Na] [MSX-3, (E)-phosphoric acid mono-[3-[8-[2-(3-methoxyphenyl)vinyl]-7-methyl-2,6-dioxo-1-prop-2-ynyl-1,2,6,7-tetrahydro-purin-3-yl]propyl] ester disodium salt, reference compound]","Times of Observation of Catalepsy (s), 0 min",[3]; 25 mg/kg,0 ± 0 s
same,"Times of Observation of Catalepsy (s), 3 min",[3]; 25 mg/kg,0 ± 0 s
same,"Times of Observation of Catalepsy (s), 6 min",[3]; 25 mg/kg,0 ± 0 s
same,"Times of Observation of Catalepsy (s), 0 min",[3]; 50 mg/kg,0 ± 0 s
same,"Times of Observation of Catalepsy (s), 3 min",[3]; 50 mg/kg,0 ± 0 s
same,"Times of Observation of Catalepsy (s), 6 min",[3]; 50 mg/kg,0 ± 0 s
same,"Times of Observation of Catalepsy (s), 0 min",[4]; 25 mg/kg i.p.,0 ± 0 s
same,"Times of Observation of Catalepsy (s), 3 min",[4]; 25 mg/kg i.p.,0 ± 0 s
same,"Times of Observation of Catalepsy (s), 6 min",[4]; 25 mg/kg i.p.,0 ± 0 s
same,"Times of Observation of Catalepsy (s), 0 min",[4]; 50 mg/kg i.p.,0 ± 0 s
same,"Times of Observation of Catalepsy (s), 3 min",[4]; 50 mg/kg i.p.,0 ± 0 s
same,"Times of Observation of Catalepsy (s), 6 min",[4]; 50 mg/kg i.p.,0 ± 0 s

# From article PMC7279487, “Dual Target Ligands with 4-tert-Butylphenoxy Scaffold as Histamine H3 Receptor Antagonists and Monoamine Oxidase B Inhibitors” (International Journal of Molecular Sciences, 2020)
